Laboratory results: publication PMC10315211 (Molecular microbiology, 2023)

Target: Rv0805 (N-His-Rv0805) (Mycobacterium tuberculosis, UniProt P9WP65)
Sequence (P9WP65 whole entry): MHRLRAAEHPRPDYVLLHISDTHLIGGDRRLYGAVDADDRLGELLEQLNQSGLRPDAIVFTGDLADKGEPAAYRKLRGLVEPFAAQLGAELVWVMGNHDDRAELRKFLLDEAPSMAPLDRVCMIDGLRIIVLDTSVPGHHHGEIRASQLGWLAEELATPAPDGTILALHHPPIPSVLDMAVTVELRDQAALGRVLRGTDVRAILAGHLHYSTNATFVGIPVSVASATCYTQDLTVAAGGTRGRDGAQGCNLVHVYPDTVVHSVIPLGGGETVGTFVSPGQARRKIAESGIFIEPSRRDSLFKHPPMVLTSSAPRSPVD

C[N+](C)(C)CCOP(=O)([O-])OC[C@H](O)CO [glycerophosphocholine]
choline oxidase / HRP coupled Amplex Red fluorometric assay: both Rv0805 and CpdAEc produced choline and Gly3P from glycerophosphocholine (GPC)
